The subject of one test is SW620 cells. Nature of the test: Cell growth inhibition, XTT assay, SW620. It is filed as cell-based. The settings on record: Homo sapiens, SW-620; incubation time 72 h. Here is the method: (§1) Cell viability was evaluated by XTT [35] (SW480 and SW620 cells) or MTT [36] (HEK293 and HCT116 cells) colorimetric assays. Briefly, cells (range 10–30 × 10^3 cells/well) were seeded in 96-well microculture plates and then exposed to increasing concentrations of different compounds (range 0–300 µM) for 48 or 72 h. At the end of the treatment, media were removed and incubated at 37 °C in the dark for 4 h in phosphate-buffered saline (PBS) containing 0.2 mg/mL of sodium 3′-[1-[(phenylamino)-carbonyl]-3,4-tetrazolium]-bis(4-methoxy-6-nitro)benzene-sulfonic acid hydrate (XTT) (Thermo Fisher Scientific, Waltham, MA, USA) or (3-[4,5-dimethylthiazol-2-yl]-2,5 diphenyl tetrazolium bromide (MTT) (Merck, Kenilworth, NJ, USA) and phenazine methosulfate (PMS) at a final concentration of 25 µM. Absorbance at 450 nm and a reference wavelength of 650 nm was then measured using a microplate spectrophotometer (Multiskan FC Microplate Photometer, Thermo Scientific, Waltham, MA, USA). The cell growth inhibition rate was calculated utilizing the following formula: inhibition rate (%) = […], where Control OD is absorbance of negative control and Sample OD is absorbance of the test sample. The IC50 values were determined with GraphPad Prism 5 through constructed dose-response curves.
(§2) In vitro cultures of colon cancer cells often present mutations either in the APC gene or in the β-catenin gene. […] Two of these cell lines, colon cancer SW480 and SW620 cells, were used in dose-response experiments. […] We thus tested their growth inhibitory activity on the colon cancer cell line HCT116. In terms of APC and β-catenin, these represent the wt counterparts of SW480 and […]. HCT116 cells express wt APC and are heterozygous for β-catenin, harboring one wild type and one mutant (Ser45del) allele. WNT pathway activity and the survival of HCT116 cells thus depend on DVL and can be affected by FZD and DVL inhibitors. […]
(In general: Tetrazolium dyes change colour on reduction, which living cells bring about.)

Another test deals with HCT116 cells. Nature of the test: Cell growth inhibition, MTT assay, HCT116. The format is cell-based. The note with it: Homo sapiens, HCT-116; incubation time 48 h; cells express wild-type APC. As to the method:
as §1, §2

As a reminder, the EC50 is the midpoint of the concentration-response curve. Take `Cc1cc(C)cc(S(=O)(=O)c2c(C(=O)N[C@H](C)C(=O)NCc3ccncc3)[nH]c3ccc(Cl)cc23)c1` [(R)-1]: the EC50 in the test on SW620 cells turned out to be 54.8 ± 1.9 µM; in the test with HCT116 cells, 28.3 ± 1.2 µM.

For `Cc1cc(C)cc(S(=O)(=O)c2c(C(=O)N[C@@H](C)C(=O)NCc3ccncc3)[nH]c3ccc(Cl)cc23)c1` [(S)-1, (S)-5-Chloro-3-((3,5-dimethylphenyl)sulfonyl)-N-(1-oxo-1-((pyridin-4-ylmethyl)amino)propan-2-yl)-1H-indole-2-carboxamide], the EC50 was 45.9 ± 2 µM with SW620 cells and 7.1 ± 0.6 µM with HCT116 cells.

`Cc1cc(C)cc(S(=O)(=O)c2c(C(=O)NC(C)C(=O)NCc3ccncc3)[nH]c3ccc(Cl)cc23)c1` (stereo not drawn) [Compound 1]: the concentration for a half-maximal effect (EC50) in the test on SW620 cells was determined as 38.5 ± 1.6 µM; in the test with HCT116 cells, 15.2 ± 1.1 µM.
